Assay results published in patent US20110008466A1, “METHODS AND COMPOSITIONS FOR ALTERING CELL FUNCTION” (ALLTECH, INC., priority 2006, published 2011).

Legend:
Format in all cases: in vivo, mice
Gadd45b [1] = experiment: Gene expression, skeletal muscle tissue; details: vs Se-deficient, minus = down
Text: (§1) Animal Care. Male C57BL/6J mice were housed singly and started on the experimental diets described below immediately after weaning (21 days of age). The mice were maintained in the Shared Aging Rodent Facility at the William S. Middleton Memorial Veterans Administration Medical Center (Madison, Wis.). Temperature and humidity were maintained at constant levels. Room light was controlled to provide 12-hr cycles of light and dark.
(§2) Experimental diets were created by Harlan Teklad (Madison, Wis.). Selenium content of the diets was determined by Covance Inc. (Madison, Wis.). Five (5) animals were included in each of the following treatment groups: a diet deficient in selenium (SD); a diet supplemented with selenomethionine (SM, obtained from Sigma, St. Louis, Mo.) such that the final selenium content of the diet was one (1) part per million; a diet supplemented with sodium selenite (SS, Sigma) such that the final concentration of selenium in this diet was one (1) part per million; or a diet supplemented with the yeast selenium SEL-PLEX (SP, Alltech, Lexington, Ky.), such that the final concentration of selenium in this diet was one (1) part per million. SEL-PLEX. Mice were provided with water and their respective diet ad libitum for 100 days. […]
(§3) • 1. […] Additionally, a “signal intensity score” was calculated for each probe set as the sum of the signal intensities for all chips (N=20). • 2. […]

[2] = tested on: complement component genes; experiment: Microarray gene expression, mouse cerebral cortex (summary of Table 6); details: p<0.01
Text: as §1
as §2, with “SEL-PLEX.” for “SEL-PLEX. Mice were provided with water and their respective diet ad libitum for 100 days.”
(§4) Tissue sample preparation and microarray analysis. […] For intestinal expression studies, the intestine was flushed twice with saline solution and small intestine was measured and divided in three equal segments. […]

[3] = tested on: LIM homeobox protein 8 gene (Lhx8); experiment: Microarray gene expression, mouse intestine; details: vs Se-deficient subjects, p<0.01
Text: as §1
(§5) Experimental diets were created by Harlan Teklad (Madison, Wis.). Selenium content of the diets was determined by Covance Inc. (Madison, Wis.). Five (5) animals were included in each of the following treatment groups: a diet deficient in selenium (SD); a diet supplemented with selenomethionine (SM, obtained from Sigma, St. Louis, Mo.) such that the final selenium content of the diet was one (1) part per million; a diet supplemented with sodium selenite (SS, Sigma) such that the final concentration of selenium in this diet was one (1) part per million; or a diet supplemented with the yeast selenium SEL-PLEX (SP, Alltech, Lexington, Ky.), such that the final concentration of selenium in this diet was one (1) part per million. SEL-PLEX. Mice were provided with water and their respective diet ad libitum for 100 days. Diets were stored at the dark at 4° C. and fresh diet was added to feeder twice weekly.
(§6) Tissue sample preparation and microarray analysis. Mice were killed at 100 days of age by cervical dislocation. For intestinal expression studies, the intestine was flushed twice with saline solution and small intestine was measured and divided in three equal segments. A 3-cm region of the middle segment of the small intestine corresponding to the jejunum (˜300 mg of tissue) was cut and rinsed again with physiological saline to completely remove contents, flash frozen in liquid nitrogen and stored at −80° C. For brain (e.g., cerebral cortex) studies, the cerebral cortex was separated from the surrounding brain tissue and was flash frozen in liquid nitrogen and stored at −80° C.
(§7) Total RNA was isolated from using the guanidinium isothiocyanate method of TRIZOL (Life Technologies, Grand Island, N.Y.) and individual samples were used for gene expression profiles. Total RNA was cleaned up by RNeasy Mini kit (Qiagen, Valencia, Calif.). Target RNA was prepared by converting […] total RNA into double-strand cDNA using GeneChip Expression 3′-Amplification Reagents One-Cycle cDNA Synthesis Kit (Affymetrix, Santa Clara, Calif.) with a T7-(dT)24 primer incorporating a T7 RNA polymerase promoter. After cleaning up double-strand cDNA using Genechip Sample Cleanup Module (Affymetrix, Santa Clara, Calif.), biotin-labeled cRNA was synthesized from double-strand cDNA using GeneChip Expression 3′-Amplification Reagents for IVT Labeling (Affymetrix, Santa Clara, Calif.). The biotin-labeled cRNA was cleaned up using Genechip Sample Cleanup Module and was fragmented by heating (35 min at 94° C.).
(§8) Fifteen (15) μg of cRNA fragments were hybridized (16 h at 45° C.) to Mouse Genome 430 2.0 Array (Affymetrix, Santa Clara, Calif.) using GeneChip Hybridization Oven 640. After hybridization, the gene chips were automatically washed and stained with streptavidin-phycoerythrin biotinylated anti-streptavidin using Affymetrix GeneChip Fluidics Station 450. The DNA chips were scanned with Affymetrix GeneChip Scanner 3000 (Affymetrix, Santa Clara, Calif.) to detect the cell signal intensities by laser. All calculations were performed with Affymetrix GeneChip Operating Software (GCOS) version 1.3 after scanning
(§9) • 1. The spreadsheet containing probe set identifiers and signal intensity values was opened in Microsoft Excel (version 11.1.1 for the Macintosh OS-X operating system) and summary statistics were generated (mean signal intensity for each treatment group, standard error of the mean). Two-tailed t-tests (equal variance) were performed for the following treatment groups: SM vs. SD, SS vs. SD, and SP vs. SD. […]

[4] = tested on: Growth arrest and DNA-damage-inducible 45 gamma (Gadd45g); experiment: Microarray gene expression, mouse intestine; details: vs Se-deficient diet, minus = down
Text: as §1, §5, §6, §7, §8, §9

Glyoxalase 1 (Glo1) = experiment: Microarray gene expression, mouse intestine; details: 1 ppm Se diet 100 days vs Se-deficient diet, p<0.01
Text: as §1, §5, §6, §7, §8, §9

Prohibitin (Phb) = experiment: Microarray gene expression, mouse intestine; details: vs Se-deficient diet, p<0.05
Text: as §1, §5, §6, §7, §8, §9

selenoprotein N1 (Sepn1) = experiment: Microarray gene expression, mouse intestine; details: 1 ppm Se diet 100 days vs Se-deficient diet, p<0.02
Text: as §1, §5, §6, §7, §8, §9

Selenoprotein W (SelW) = experiment: Microarray gene expression, mouse intestine; details: 1 ppm Se diet 100 days vs Se-deficient diet
Text: as §1, §5, §6, §7, §8, §9

[5] = tested on: Type 1 iodothyronine deiodinase; experiment: Microarray gene expression, mouse intestine; details: 1 ppm Se diet 100 days vs Se-deficient diet
Text: as §1, §5, §6, §7, §8, §9

Gadd45g1p = experiment: Microarray gene expression, mouse intestine; details: p<0.05
Text: as §1, §5, §6, §7, §8, §9

SelR (Selenoprotein X1) = experiment: Microarray gene expression, mouse intestine; details: 1 ppm Se diet 100 days vs Se-deficient diet
Text: as §1, §5, §6, §7, §8, §9

[6] = tested on: type II iodothyronine deiodinase (Dio2); experiment: Microarray gene expression, mouse intestine; details: 1 ppm Se diet 100 days vs Se-deficient diet
Text: as §1, §5, §6, §7, §8, §9

[7] = tested on: transforming growth factor beta 2 (TGF-β2); experiment: Microarray gene expression, mouse intestine; details: vs controls
Text: as §1, §5, §6, §7, §8, §9

[8] = tested on: sprouty homolog 2 gene (Spry2); experiment: Microarray gene expression, mouse intestine; details: relative to Se-deficient controls
Text: as §1, §5, §6, §7, §8, §9

Neurogenin 3 (Neurog3) = experiment: Microarray gene expression, mouse intestine; details: vs Se-deficient diet
Text: as §1, §5, §6, §7, §8, §9

[9] = tested on: Growth arrest and DNA-damage-inducible 45 beta (Gadd45b); experiment: Microarray gene expression, mouse intestine; details: intestinal tissue; vs Se-deficient; minus = down
Text: as §1, §5, §6, §7, §8, §9

GST genes = experiment: Microarray gene expression, mouse intestine (summary of Table 3); details: vs Se-deficient diet
Text: as §1
as §2, with “SEL-PLEX.” for “SEL-PLEX. Mice were provided with water and their respective diet ad libitum for 100 days.”
as §4

[10] = tested on: glycogen synthase kinase-3-beta (GSK-3β); experiment: Microarray gene expression, tau kinases, brain; details: vs non-selenium supplemented diet; minus = down; * significant; listed as SM
Text: as §1, §5, §6
(§10) Total RNA was isolated from using the guanidinium isothiocyanate method of TRIZOL (Life Technologies, Grand Island, N.Y.) and individual samples were used for gene expression profiles. Total RNA was cleaned up by RNeasy Mini kit (Qiagen, Valencia, Calif.). Target RNA was prepared by converting […] total RNA into double-strand cDNA using GeneChip Expression 3′-Amplification Reagents One-Cycle cDNA Synthesis Kit (Affymetrix, Santa Clara, Calif.) with a T7-(dT)24 primer incorporating a T7 RNA polymerase promoter. […]

[11] = tested on: cyclin-dependent kinase 5 (Cdk-5); experiment: Microarray gene expression, tau kinases, brain; details: vs non-selenium supplemented diet; minus = down; * significant; listed as SM
Text: as §1, §5, §6, §10

CORS-26 = experiment: Microarray gene expression, mouse cerebral cortex; details: Example 10 (brain); vs Se-deficient diet
Text: as §1, §5, §6, §7, §8, §9

Gadd45b [12] = experiment: Microarray gene expression, mouse cerebral cortex; details: cortex tissue, vs Se-deficient, minus = down
Text: as §1, §5, §6, §7, §8, §9

Gadd45b [13] = experiment: Gene expression, liver tissue; details: vs Se-deficient, minus = down
Text: as §1, §2, §3

Which results are given for `C[Se]CC[C@H](N)C(=O)O` [SeM, selenomethionine]?
Fold change Gadd45b gene expression, skm (Table 14) (Gadd45b [1]): 1.02 fold; down-regulation of complement component genes (summary in words) [2]: did not provide a statistically significant alteration; fold upregulation of Lhx8 expression [3]: not significantly different; FC Gadd45g expression (Table 2) [4]: −1.5 (p < 0.05) fold; fold reduction of Glo1 expression (Glyoxalase 1 (Glo1)): not significantly affected; fold upregulation of Prohibitin (Phb) expression (Prohibitin (Phb)): 1.6 fold; fold increase of selenoprotein N1 (Sepn1) gene expression (selenoprotein N1 (Sepn1)): not significantly affected; fold upregulation of Selenoprotein W (SelW) expression (Selenoprotein W (SelW)): not significantly altered; fold increase in expression of Type 1 iodothyronine deiodinase [5]: 2.0 fold; expression of Gadd45g1p in intestinal tissue (Gadd45g1p): decreased expression; fold upregulation of SelR gene (SelR (Selenoprotein X1)): not significantly affected; fold down-regulation of Dio2 expression [6]: no ability to alter; fold upregulation of TGF-β2 expression [7]: not altered; fold reduction in Spry2 gene expression [8]: no alteration; fold upregulation of Neurog3 expression (Neurogenin 3 (Neurog3)): no significant alteration; Fold change Gadd45b gene expression, int (Table 14) [9]: −1.07 fold; alteration of expression pattern of GST genes (summary in words) (GST genes): no alteration; FC GsKβ3 (GSK-3β) gene expression [10]: −1.10 fold; FC CdK5 gene expression [11]: −1.00 fold; fold reduction in expression of CORS-26 (CORS-26): no alteration; Fold change Gadd45b gene expression, ctx (Table 14) (Gadd45b [12]; listed as Selenomethionine): −1.26 fold; Fold change Gadd45b gene expression, ctx (Table 14) (Gadd45b [12]; listed as selenomethionine): significant reduction; Fold change Gadd45b gene expression, liv (Table 14) (Gadd45b [13]): 1.24 fold
